Results published in patent US20110256559A1, “Method for Detecting Soluble Amyloid Precursor Protein (APP) Alpha and/or Soluble APP Beta” (INSERM (Institut National de la Sante et de la Recherche …, priority 2008, published 2011).
Entries after “also recorded” stand apart in the source; their conditions may differ.

Assays:
[1] = tested on: sAPPα; assay: sAPPα HTRF assay in SH-SY5Y neuroblastoma cells conditioned medium; assay type: cell-based, human; details: for effect on PdBu-induced increase of sAPPα secretion: PKC activated by PdBu (FIG. 7)
Description: (§1) Four types of biological samples were investigated using the following procedure: human CSF, human blood serum, culture medium of neuroblastoma SH-SY5Y cell line treated with different drugs (for instance the PKC activator PdBu which stimulate the ADAM 17 alpha secretase activity), or conditioned culture medium from primary mouse cortical neurons.
(§2) All samples and calibrator were treated with 10 mM DTT on ice, during 30 min. In a 384-well low volume (20 μl) white plate, reagents were distributed in the following order: • 5 μl 150 mM phosphate buffer pH 7.0, 0.2% BSA. • 5 μl sample or calibrator, treated with DTT and diluted. • 5 μl MAB348 antibody, cryptate conjugate, diluted 1/250 with 50 mM phosphate buffer pH 7.0, 0.4M KF. • 5 μl 2B3 antibody, D2 conjugate, diluted 1/250 with 50 mM phosphate buffer pH 7.0, 0.4M KF.
The plate covered with a plate sealer was centrifuged (1000 g 1 min) and incubated overnight, at room temperature.
The plate sealer was removed, and the plate read on a compatible HTRF reader (Envision, Perkin Elmer), at […].
Results are calculated from 665 nm/620 nm ratio and expressed in delta F: […]
Delta F is proportional to the sAPPα concentration; Delta F obtained for samples can be reported on the calibration curve to deduce respective sAPPα concentration.
Different samples were submitted to the sAPPα HTRF assay with or without DTT treatment.
Numerous studies have shown that the sAPPα secretion is regulated by some intracellular signalisation pathway involving PKC and that the α-secretase responsible for this secretion is a disintegrin-metalloproteinase (ADAM 17).

[2] = tested on: sAPPα; assay: sAPPα HTRF assay in primary cortical neurons conditioned medium; assay type: cell-based, mouse; details: primary neurons from transgenic mice expressing wild type human APP (FIG. 8)
Description: as §1, §2
Validation of the sAPPα HTRF Assay in Primary Cortical Neurons Conditioned Medium. (FIG. 8)

CN(C)CCCn1cc(C2=C(c3c[nH]c4ccccc34)C(=O)NC2=O)c2ccccc21 [GF 109203]
effect on PdBu-induced increase of sAPPα secretion ([1]; SH-SY5Y conditioned medium): abolished

CC(C)C[C@H](CC(=O)NO)C(=O)N[C@@H](Cc1ccc2ccccc2c1)C(=O)N[C@@H](C)C(N)=O [TAPI 0]
effect on PdBu-induced increase of sAPPα secretion ([1]; SH-SY5Y conditioned medium): abolished

O=C(O[C@@H]1Cc2c(O)cc(O)cc2O[C@@H]1c1cc(O)c(O)c(O)c1)c1cc(O)c(O)c(O)c1 [EGCG]
effect on sAPP alpha in the medium [2]: increase of sAPP alpha

CCCC(=O)O[C@@H]1[C@@H](C)[C@@]2(O)[C@@H](C=C(CO)C[C@]3(O)C(=O)C(C)=C[C@@H]23)[C@@H]2C(C)(C)[C@]12OC(=O)CCC [PdBu]
effect on amount of sAPPα / sAPPα secretion ([1]; SH-SY5Y conditioned medium, samples pre-treated with DTT (FIG. 7)): activates the production of sAPPα; also recorded: increased
sAPP alpha, Without DTT ([1]; conditioned medium of SH-SY5Y neuroblastoma cell line, no DTT pre-treatment, n=8): 3.4 ± 0.4 ng/mL
sAPP alpha, With DTT ([1]; conditioned medium of SH-SY5Y neuroblastoma cell line, sample pre-treated with 10 mM DTT, n=8): 59.1 ± 2.8 ng/mL
sAPPα Mean, inter assay reproducibility ([1]; conditioned medium, inter assay, 16 samples): 61.4 ng/mL
sAPPα Mean, intra assay reproducibility ([1]; conditioned medium, intra assay, 8 samples): 59.1 ng/mL

PACAP 1-27
effect on sAPP alpha in the medium [2]: increase of sAPP alpha
